Data taken from patent US20260183225A1, “PHARMACEUTICAL COMPOSITION FOR TOPICAL ADMINISTRATION COMPRISING A VOLATILE ANAESTHETIC” (LABORATORIOS GEBRO PHARMA, S.A., priority 2022, published 2026).

Assays:
[1] = test system: sciatic nerve ligation or chronic constriction injury (CCI) model; test: von Frey filament test (mechanical allodynia), CCI model, subcutaneous injection; type: in vivo, rat
Description: (§1) Male Wistar rats with a body weight between 250 and 300 g were kept in standard laboratory conditions (12 h light/dark cycles, temperature 21° C.). Four groups were formed and treated once a day with a composition comprising an active ingredient: • Group 1 was administered 10% of LGP10-16. • Group 2 was administered 25% of LGP10-16. • Group 3 was administered 100% of LGP10-16. • A control group 4 was administered saline solution. Each group consisted of 15 rats.
The sciatic nerve ligation or chronic constriction injury (CCI) model for as described by Bennett and Xie was used. The sciatic nerve ligation model generates a peripheral nerve injury that causes the appearance of mechanical and thermal hyperalgesia, mechanical allodynia and sometimes signs of spontaneous pain can be observed, by the spontaneous 5 elevation of the paw. All these symptoms appear one week after nerve ligation and can last more than two months. The added value of the model is that each animal can be its own control, since the contralateral paw, not being injured, reflects normal values. […]

A delta nerve fibres = test: isolated nerve fibre model (electrophysiology of A delta fibres)
Description: In a first step, an isolated nerve fibre model was used and the effect of a 25% dilution (nutrient solution) of LGP10-16 on the different electrophysiological variables of the A delta nerve fibres was evaluated. The stimulated fibres from the A delta type correspond to nociceptive sensory fibres. 250 μl of LGP10-16 and 750 μl of nutrient solution were used in this test.

[2] = test system: sciatic nerve ligation or chronic constriction injury (CCI) model; test: conditioned place preference (CPP) test, spontaneous pain, CCI model; type: in vivo, rat; settings: LGP10-16 25%; day 14 and day 21
Text: The conditioned place preference (CPP) test assesses emotional responses; it is based on the evaluation of an associated learning behaviour in response to a new aversive environment. The CPP apparatus (70×30×30 cm) is divided into 3 compartments: two test compartments of identical dimensions and a third one considered as a neutral zone, which is narrower. The two test compartments have different visual and tactile characteristics (colour and texture of the walls and floor), so that the animal can differentiate them well and can be isolated by movable doors, so that communication between the three compartments can be allowed or blocked. On the pre-conditioning day, the animal was allowed to roam freely in the three compartments for 30 min, and the time spent in each compartment was measured ([…] that spend more than 60% in one compartment were excluded).
On conditioning days, animals were administered the drug and confined for 15 min in one of the test compartments (always in the same compartment) in order to associate the drug administration to that area. This conditioning procedure was repeated for each administration of the drug. […] The CPP value is expressed as the difference between the […]. […]

mouse vas deferens = mouse vas deferens preparation, inhibition of contractile activity
Description: In a second step, the effect of different concentrations of LGP10-16 on preparations of mouse vas deferens and guinea-pig ileum LMMP was studied.
After adding a concentration of the drug to the organ bath, it is left for 9 minutes to test its effect, after which the preparation is washed. At the end of the first concentration-response curve (left bars), it is left for 90 mins and the second curve is created (right bars).

Male Wistar rats = test: healing and local tolerability after subcutaneous injection in CCI rats; type: in vivo, rat
Description: as §1

[3] = test system: sciatic nerve ligation or chronic constriction injury (CCI) model; test: rodent pincher test (mechanical hyperalgesia), CCI model, subcutaneous injection; type: in vivo, rat; settings: s.c. once a day; 10%, 25% and 100% LGP10-16
Description: as §1
The sciatic nerve ligation or chronic constriction injury (CCI) model for as described by Bennett and Xie was used. The sciatic nerve ligation model generates a peripheral nerve injury that causes the appearance of mechanical and thermal hyperalgesia, mechanical allodynia and sometimes signs of spontaneous pain can be observed, by the spontaneous 5 elevation of the paw. All these symptoms appear one week after nerve ligation and can last more than two months. The added value of the model is that each animal can be its own control, since the contralateral paw, not being injured, reflects normal values.
Mechanical hyperalgesia was tested in the rodent pincher test. The rodent pincher algometer allows calibrated forceps to induce quantifiable mechanical stimulation in the animal. The pressure is applied in the “inter-digital” region. […]

guinea-pig ileum LMMP = guinea-pig ileum LMMP preparation, inhibition of contractile activity
Text: In a second step, the effect of different concentrations of LGP10-16 on preparations of mouse vas deferens and guinea-pig ileum LMMP was studied. […] In the case of this preparation, after washing, the curve has the same appearance, and the LGP10-16 activity is the same in both curves. To further investigate these differences, the battery of guinea-pig ileum experiments was repeated, this time without washing between the two curves, to see if the effect changed in any way. […] This is a clear synergic effect, as a result of the continued presence of LGP10-16 in the bath.

[4] = maximum concentration 25%, second curve

FCOC(C(F)(F)F)C(F)(F)F [LGP10-16, Sevoflurane]
difference with respect to the control (von Frey) ([1]; from the first run at day 7, all doses (10%, 25%, 100%)): statistically significant differences
antiallodynic effect (von Frey) ([1]; s.c. once a day, 10%, 25% and 100% LGP10-16): dose- and time-dependent antiallodynic effect
reversibility of the effect (A delta nerve fibres; 25% dilution): reversible
effect on nerve fibre firing capacity (A delta nerve fibres; 25% dilution in nutrient solution, increasing pressure stimulus): inhibition of the nerve fibre firing capacity
duration of the effect after a single application (A delta nerve fibres; 25% dilution, maintained after washing the fibre): up to 90 minutes
effect level reached with a 25% solution (A delta nerve fibres; 25% solution): maximum effect was reached
time spent in the compartment associated with drug administration (CPP) [2]: spent more time in the room associated with drug administration
recovery of contractile capacity after washing after the first curve (mouse vas deferens; 25%, washed after first curve): around 75%
Emax (mouse vas deferens; Mus musculus, 25%, washed after second curve, read-out: contractile activity after washing after the second curve, of maximum response): 50%
persistence of the effect after washing (mouse vas deferens; after changing the nutrient solution): maintained even 90 minutes after washing the preparation
inhibition of the contractile response (mouse vas deferens; concentrations from 1% to 25% added to the bath, 9 minutes): concentration-dependent inhibition
inhibition at the end of the first curve (mouse vas deferens; maximum concentration 25%): 55%
inhibition at the end of the second curve (mouse vas deferens; [4]): 85%
effect on healing (Male Wistar rats; concentrations of 10% and 25%, s.c.): not negatively affected
local adverse findings (Male Wistar rats; group 3, 100% LGP10-16, s.c.): skin irritation and blistering
side effects in animal models (Male Wistar rats; summary statement): no relevant side effects
antihyperalgesic effect (rodent pincher) [3]: dose and time-dependent
effect when the preparation was not washed between the two curves (guinea-pig ileum LMMP; 1% to 25%, without washing, more inhibitory at intermediate doses): somewhat greater
recovery of contractile capacity after washing after the first curve (guinea-pig ileum LMMP; 25%, washed after first curve): 100%
recovery of function after washing after the second curve (guinea-pig ileum LMMP; 25%, washed after second curve): 100%
inhibition of functional activity (guinea-pig ileum LMMP; concentration of 10% and 25%): complete (and reversible) inhibition
inhibition at the end of the first curve (guinea-pig ileum LMMP; increasing concentrations 1% to 25%, maximum 25%): 100%
inhibition at the end of the second curve (guinea-pig ileum LMMP; [4]): 100%
